Measured values as given in article PMC11487561 (ACS Chemical Neuroscience, 2024).

Legend:
[1] = Binding in plasma from rat (equilibrium dialysis); type: in vitro ADME; settings: fraction unbound, equilibrium dialysis, read-out: rat fu,plasma
Description: Binding in plasma from rat and human.
Determination of compounds’ fraction unbound (f u) in plasma from rat and human was conducted in vitro via equilibrium dialysis using HTDialysis membrane plates. Dialysis membranes (four paired strips per HTD assay) were hydrated as described by the manufacturer and inserted into the HTD plate, which was assembled and prepared for sample addition by the dispensing of blank buffer (DPBS, 100 µL/well) into the ‘top half’ of each membrane-split well. Each compound was diluted into plasma from each species (5 µM final concentration), which was aliquoted in triplicate to the ‘bottom half’ of the prepared HTD plate wells. The HTD plate was sealed and incubated for 6 hours at 37 °C. Following incubation, each well (both top and bottom halves) were transferred (20 µL) to the corresponding wells of a 96-shallow-well (V-bottom) plate. The daughter plates were then matrix-matched (buffer side wells received equal volume of plasma, and plasma side wells received equal volume of buffer), and extraction solution (120 µL; acetonitrile containing 50 nM carbamazepine as IS) was added to all wells of both daughter plates to precipitate protein and extract test article. The plates were then sealed and centrifuged (3500 rcf) for 10 minutes at ambient temperature. Supernatant (60 µL) from each well of the daughter plates was then transferred to the corresponding wells of new daughter plates (96-shallow-well, V bottom) containing water (Milli-Q, 60 µL/well), and the plates were sealed in preparation for LC-MS/MS analysis (see below). fu was calculated as (analyte to IS MS peak area ratio from Trans-buffer side) / (analyte to IS MS peak area ratio from Cis-plasma side). Mean values for each species were calculated from 3 replicates.

CYP 3A4 = target: T1, CYP 3A4 (Homo sapiens, UniProt P08684); assay: P450 inhibition in pooled human liver microsomes; type: in vitro ADME; settings: pooled HLM, NADPH, CYP-specific probe substrates
T1 construct: from tissue; host or cells: pooled human liver microsomes (according to the earlier reading)
T1 sequence (P08684 whole entry): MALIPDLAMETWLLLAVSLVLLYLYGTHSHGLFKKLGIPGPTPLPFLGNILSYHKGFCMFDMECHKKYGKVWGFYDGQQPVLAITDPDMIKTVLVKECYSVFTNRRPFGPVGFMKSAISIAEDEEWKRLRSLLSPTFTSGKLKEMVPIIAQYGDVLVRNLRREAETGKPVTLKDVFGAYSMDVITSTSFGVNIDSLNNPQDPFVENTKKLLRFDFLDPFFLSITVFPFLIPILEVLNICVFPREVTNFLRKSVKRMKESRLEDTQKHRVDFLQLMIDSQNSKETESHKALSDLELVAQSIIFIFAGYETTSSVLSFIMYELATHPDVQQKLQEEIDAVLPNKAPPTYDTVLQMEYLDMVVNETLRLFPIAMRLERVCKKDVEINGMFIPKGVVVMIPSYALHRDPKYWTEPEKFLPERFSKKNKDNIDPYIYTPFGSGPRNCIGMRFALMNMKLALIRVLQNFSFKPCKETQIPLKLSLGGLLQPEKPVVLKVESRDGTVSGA

[2] = tested on: amphetamine-induced hyperlocomotion in rats; assay: Rat amphetamine-induced hyperlocomotion (AHL); type: in vivo; settings: for mean reversal of AHL: listed as VU6016235
Description: Rat Amphetamine-Induced Hyperlocomotion (AHL) Protocol
Male Harlan Sprague Dawley rats with a mean body weight of 240 g (range 221-264 g) were tested in SmartFrame Open Field locomotor activity test chambers to automatically record locomotor activity. All rats were habituated in locomotor activity enclosures for 30 min, followed by pretreatment by oral gavage for an additional 30 min with either vehicle or a dose of VU6016235 or the comparator M 4 PAM VU0467154. Next, rats were injected subcutaneously with vehicle or a dose of 0.75 mg/kg amphetamine and then monitored for an additional 60 min. Changes in locomotor activity were recorded for a total of 120 min. Locomotor data were expressed as the number of photobeam breaks/5 min intervals across the 120-min test session or as the total ambulation, calculated as sum of photobeam beam breaks from the time of amphetamine administration (60 min) until the end of the study (120 min). Time course data were analyzed by two-way ANOVA with main effects of treatment and time; changes in total ambulation were analyzed by one-way ANOVA followed by Dunnett’s post hoc test (GraphPad Prism 7 [GraphPad Software, San Diego, CA]). For all tests, α ≤ 0.05 was considered to represent statistical significance.
Finally, percent reversal data were calculated in Microsoft Excel using the following formula: Percent Reversal = 100 - {[(total ambulation in individual animal from t = 60 to t = 120) / (mean total ambulation […]
from t=60 to t=120 in the VAMP group)] * 100}. Mean percent reversal ± S.E.M. was calculated for each dose group using GraphPad Prism 7.
At the end of this behavioral study, each rat was euthanized, then decapitated, and the plasma and brain tissues were collected for the evaluation of exposure levels of VU6016235-05 or VU0467154-9A by pharmacokinetic analysis. […]

Bradykinin B2 = target: T2, Bradykinin B2 (Homo sapiens, UniProt P30411); assay: Lead Profiling Screen – Eurofins Panlabs; type: binding; settings: read-out: % inh at 10 μM
T2 construct: Eurofins Panlabs (contract screen)
T2 sequence (P30411 whole entry): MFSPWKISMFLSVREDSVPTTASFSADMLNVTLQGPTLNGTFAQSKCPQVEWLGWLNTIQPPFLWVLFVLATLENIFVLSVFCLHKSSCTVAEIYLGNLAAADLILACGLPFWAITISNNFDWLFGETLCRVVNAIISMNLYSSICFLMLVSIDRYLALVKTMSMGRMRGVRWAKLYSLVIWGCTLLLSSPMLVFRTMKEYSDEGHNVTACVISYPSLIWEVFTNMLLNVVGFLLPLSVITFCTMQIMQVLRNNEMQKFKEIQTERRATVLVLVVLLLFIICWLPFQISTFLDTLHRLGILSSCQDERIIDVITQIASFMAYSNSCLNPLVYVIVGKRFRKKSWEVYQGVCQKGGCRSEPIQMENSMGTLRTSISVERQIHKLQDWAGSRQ

Calcium Channel N-Type = target: T3, Calcium Channel N-Type (Rattus norvegicus, UniProt Q02294); assay: Lead Profiling Screen – Eurofins Panlabs; type: binding; settings: read-out: % inh at 10 μM
T3 construct: Eurofins Panlabs (contract screen)

Dopamine D3 = target: T4, Dopamine D3 (Homo sapiens, UniProt P35462); assay: Lead Profiling Screen – Eurofins Panlabs; type: binding; settings: read-out: % inh at 10 μM
T4 construct: Eurofins Panlabs (contract screen)
T4 sequence (P35462 whole entry): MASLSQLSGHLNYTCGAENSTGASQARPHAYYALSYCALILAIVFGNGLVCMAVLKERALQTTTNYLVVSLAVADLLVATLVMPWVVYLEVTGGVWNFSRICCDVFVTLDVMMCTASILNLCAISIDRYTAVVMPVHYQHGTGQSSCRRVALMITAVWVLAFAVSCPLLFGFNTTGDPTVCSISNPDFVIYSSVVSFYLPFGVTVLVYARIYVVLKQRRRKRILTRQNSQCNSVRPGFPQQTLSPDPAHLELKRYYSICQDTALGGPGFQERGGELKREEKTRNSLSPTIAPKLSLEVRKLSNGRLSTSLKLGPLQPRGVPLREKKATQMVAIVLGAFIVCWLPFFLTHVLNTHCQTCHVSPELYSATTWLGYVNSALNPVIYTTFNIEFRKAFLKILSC

GABAB1A = target: T5, GABAB1A (Homo sapiens, UniProt Q9UBS5); assay: Lead Profiling Screen – Eurofins Panlabs; type: binding; settings: read-out: % inh at 10 μM
T5 construct: Eurofins Panlabs (contract screen)
T5 sequence (Q9UBS5 15-961 limits assumed): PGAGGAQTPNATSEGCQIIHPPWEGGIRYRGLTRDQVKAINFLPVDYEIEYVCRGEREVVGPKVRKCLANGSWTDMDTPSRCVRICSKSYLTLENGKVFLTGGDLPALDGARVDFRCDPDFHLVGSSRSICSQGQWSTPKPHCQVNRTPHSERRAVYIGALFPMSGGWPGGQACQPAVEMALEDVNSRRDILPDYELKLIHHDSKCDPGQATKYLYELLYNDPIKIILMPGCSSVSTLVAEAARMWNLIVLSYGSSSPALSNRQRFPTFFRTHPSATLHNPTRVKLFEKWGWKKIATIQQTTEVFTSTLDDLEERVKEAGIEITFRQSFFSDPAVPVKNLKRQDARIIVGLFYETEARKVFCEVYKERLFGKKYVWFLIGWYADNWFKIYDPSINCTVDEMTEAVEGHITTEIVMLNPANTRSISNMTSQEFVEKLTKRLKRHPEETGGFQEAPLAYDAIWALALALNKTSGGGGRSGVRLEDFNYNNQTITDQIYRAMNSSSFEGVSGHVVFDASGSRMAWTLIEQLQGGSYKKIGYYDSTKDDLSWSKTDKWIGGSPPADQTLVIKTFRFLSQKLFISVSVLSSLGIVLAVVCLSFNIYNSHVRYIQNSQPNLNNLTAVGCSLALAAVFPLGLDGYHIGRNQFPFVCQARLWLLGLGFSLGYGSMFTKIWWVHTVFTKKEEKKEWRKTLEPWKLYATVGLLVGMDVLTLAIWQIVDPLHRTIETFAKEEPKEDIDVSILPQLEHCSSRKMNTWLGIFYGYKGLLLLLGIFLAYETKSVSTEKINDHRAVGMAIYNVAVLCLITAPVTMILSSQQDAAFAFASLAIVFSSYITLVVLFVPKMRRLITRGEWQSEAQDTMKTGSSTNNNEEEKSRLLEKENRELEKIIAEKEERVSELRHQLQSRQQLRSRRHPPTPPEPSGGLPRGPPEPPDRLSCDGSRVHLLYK
T5 sequence (O75899 42-941 partner): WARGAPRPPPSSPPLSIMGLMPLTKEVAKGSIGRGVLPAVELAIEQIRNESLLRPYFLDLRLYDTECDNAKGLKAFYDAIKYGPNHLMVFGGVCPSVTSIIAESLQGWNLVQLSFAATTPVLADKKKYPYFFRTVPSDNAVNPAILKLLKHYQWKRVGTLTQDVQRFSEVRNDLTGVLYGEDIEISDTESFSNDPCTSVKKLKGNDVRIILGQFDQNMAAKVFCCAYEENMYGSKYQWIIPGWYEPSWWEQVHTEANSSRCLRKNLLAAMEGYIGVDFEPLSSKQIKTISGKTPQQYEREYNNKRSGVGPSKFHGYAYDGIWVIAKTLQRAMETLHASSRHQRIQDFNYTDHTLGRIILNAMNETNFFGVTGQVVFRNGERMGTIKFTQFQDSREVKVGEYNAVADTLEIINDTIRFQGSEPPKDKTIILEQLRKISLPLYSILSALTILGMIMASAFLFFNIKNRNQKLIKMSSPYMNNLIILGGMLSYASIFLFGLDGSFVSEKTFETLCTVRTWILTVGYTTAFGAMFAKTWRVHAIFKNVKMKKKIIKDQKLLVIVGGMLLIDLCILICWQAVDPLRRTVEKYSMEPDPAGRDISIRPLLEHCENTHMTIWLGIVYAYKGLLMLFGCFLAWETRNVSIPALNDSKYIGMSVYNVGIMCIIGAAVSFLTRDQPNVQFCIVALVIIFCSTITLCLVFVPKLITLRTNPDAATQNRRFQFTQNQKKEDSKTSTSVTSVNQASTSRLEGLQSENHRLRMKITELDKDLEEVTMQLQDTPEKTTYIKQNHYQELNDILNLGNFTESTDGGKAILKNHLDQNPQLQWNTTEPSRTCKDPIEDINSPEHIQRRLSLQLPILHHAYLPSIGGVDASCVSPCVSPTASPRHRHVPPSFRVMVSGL

Histamine H3 = Histamine H3 (Homo sapiens, UniProt Q9Y5N1); assay: Lead Profiling Screen – Eurofins Panlabs; type: binding; settings: read-out: % inh at 10 μM
Chain of Histamine H3 (Q9Y5N1 whole entry): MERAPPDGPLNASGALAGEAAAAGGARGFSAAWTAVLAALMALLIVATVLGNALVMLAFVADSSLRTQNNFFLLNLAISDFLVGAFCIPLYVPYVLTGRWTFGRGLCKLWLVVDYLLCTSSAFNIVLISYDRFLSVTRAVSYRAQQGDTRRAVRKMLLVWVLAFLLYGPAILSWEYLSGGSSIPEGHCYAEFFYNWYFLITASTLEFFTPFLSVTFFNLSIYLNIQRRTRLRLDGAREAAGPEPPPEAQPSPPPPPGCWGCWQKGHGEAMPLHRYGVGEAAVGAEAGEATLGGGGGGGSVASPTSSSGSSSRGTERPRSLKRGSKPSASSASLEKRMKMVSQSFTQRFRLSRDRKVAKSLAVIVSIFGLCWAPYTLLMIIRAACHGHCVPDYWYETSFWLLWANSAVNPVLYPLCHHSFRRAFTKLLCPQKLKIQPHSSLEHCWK

Purinergic P2X = assay: Lead Profiling Screen – Eurofins Panlabs; type: binding, rabbit
Rolipram = assay: Lead Profiling Screen – Eurofins Panlabs; type: binding, rat

Compound: Cc1nc(C)c2c(n1)sc1c(NCc3ccc(C(C)(C)O)cc3)nccc12 [22g]
- fraction unbound at 6 h, 5 µM [1]: 0.024
- IC50 (CYP 3A4): 17 µM
- mean % reversal of AHL ([2]; 0.56 mg/kg p.o. + amphetamine 0.75 mg/kg s.c.): 12.8 ± 3.9%
- mean reversal of AHL ([2]; 3 mg/kg p.o. + amphetamine 0.75 mg/kg s.c.): 41.4%
- mean reversal of AHL ([2]; 10 mg/kg p.o. + amphetamine 0.75 mg/kg s.c.): 54.2%
- MED, reversal of AHL ([2]; oral administration): 1 mg/kg
- inhibition at 10 µM (Bradykinin B2): -1%
- inhibition at 10 µM (Calcium Channel N-Type): 2%
- inhibition at 10 µM (Dopamine D3): 3%
- inhibition at 10 µM (GABAB1A): 6%
- inhibition at 10 µM (Histamine H3): 25%
- % inh at 10 μM (Purinergic P2X): 0%
- % inh at 10 μM (Rolipram): 5%
